Experimental data reported in patent EP0874818B1, “NOVEL SUBSTITUTED ARYL COMPOUNDS USEFUL AS MODULATORS OF ACETYLCHOLINE RECEPTORS” (priority 1995, dated 1997).
Read-outs that look alike come from different tables or passages of the source.

Key:
[1] = molecular target: muscarinic acetylcholine receptors; assay: 3H-QNB (quinuclidinyl benzilate) displacement, rat cerebral membranes; type: binding; settings: read-out: Displacement of Radiolabeled Liqands IC50 Quinuc Benz
[2] = tested on: rat striatal slices; assay: 3H-dopamine release from rat striatal slices (superfusion); type: cell-based; settings: read-out: % of Nicotine Response 3H-DA Striatum
Description: Measurement of ^3H-dopamine (^3H-DA) release from rat striatal slices was performed according to the method of Sacaan et al., (J. Pharmacol. Comp. Ther 224:224-230 (1995)). Male Sprague-Dawley rats (250-300 g) were decapitated and the striata or olfactory tubercles dissected quickly on a cold glass surface. The tissue was chopped to a thickness of 300 µm with a McIlwain tissue chopper. After chopping again at right angles the tissue was dispersed and incubated for 10 min. at 37°C in oxygenated Kreb's buffer. ^3H-Dopamine (40 Ci/mmol, NEN-Dupont, Boston, Ma) was added (50 nM) and the tissue was incubated for 30 min. in Kreb's buffer containing 10 µM pargyline and 0.5 mM ascorbic acid. Aliquots of the minced tissue were then transferred to chambers of a Brandel Superfusion system in which the tissue was supported on Whatman GF/B filter discs. The tissue was then superfused with buffer at a constant flow rate of 0.3 ml/min by means of a Brandel peristaltic pump. The perfusate was collected in plastic scintillation vials in 3-min fractions, and the radioactivity was estimated by scintillation spectrophotometry. The superfusate for the first 120 min was discarded. […] At the end of the experiment the filter and the tissue were removed, and the radiolabeled neurotransmitter content was estimated after extraction into scintillation fluid. The fractional efflux of radiolabeled neurotransmitter was estimated as the amount of radioactivity in the perfusate fraction relative to the total amount in the tissue.
The results presented in the Table are expressed as the percent fractional release.

[3] = tested on: rat hippocampus; assay: tissue or blood; type: cell-based; settings: read-out: % of Nicotine Response 3H-NE Hippocampus
[4] = tested on: acetylcholine release in the hippocampus; type: in vivo, Male Sprague Dawley Rats
Description: Male Sprague Dawley Rats (230-290 g) were anesthetized in a chamber saturated with isofluorane. Once immobilized, the rats were mounted in a Kopf stereotaxic apparatus with the incisor bar set at -3.3 mm (Praxinos and Watson, 1986). A midline incision was made on the skull to expose the underlying fascia. The skull was cleaned with an antibacterial preparation containing iodine and a hole was made in the skull at the following coordinates: AP, -3.5 mm and ML, +2.0 mm (Praxinos and Watson, 1986). A stainless steel guide cannula (Small Parts, Inc., Stillwater, FL) was cut to 2.0 mm length and inserted into the hole. Three additional holes were drilled into the skull surrounding the guide cannula and small machine screws were placed into these holes. The guide cannula and screws were secured by dental cement. A dummy cannula was inserted into the guide cannula to prevent clogging. The animals were removed from the stereotaxic frame and single housed for 3-7 days with free access to food and water.
On the day of the experiment, the rats were briefly anesthetized with isofluorane and the dummy cannulae were removed. A microdialysis cannula containing a Loop type probe with a rigid shaft and molecular weight cut-off of 6000 (ESA Inc, Chelmsfold, MA) of approximately 2 mm in length, was inserted into the guide cannula. Under these conditions, the microdialysis probe extended 2 mm beneath the guide cannula. The animal was placed in plastic bowl (CMA 120; CMA Microdialysis, Acton, MA, USA) with a harness around the neck. The microdialysis probe was connected to a syringe pump through which a salt solution representing the ionic concentration of the cerebrospinal fluid (artificial CSF; 145 mM NaCl; […]; […] and […]; pH 7.4; Moghaddam and Bunney, J. Neurochem, 53, 652-654, 1989) containing 100 nM neostigmine was pumped at a rate of 1.5 µL/min.
Twenty minute fractions were collected and automatically injected via a sample loop and an auto-injector. The on-line microdialysis comprised of the following components: a CMA/100 microsyringe pump connected to a CMA/111 syringe selector. The mobile phase (100 mM disodium hydrogen phosphate; 2.0 mM 1-octane sulfonic acid sodium salt; 0.005% reagent MB (ESA Inc., Chelmeford, MA) pH 8.00 with phosphoric acid) was pumped using a model 580 ESA pump through a polymeric reverse phase column (ACH-3, ESA Inc., […]; 3.2 mmx 15 cm). The effluent from the column was passed through an enzyme reactor containing immobilized acetylcholinesterase and choline oxidase (ACH-SPR, ESA Inc.). The HPLC column and the enzyme reactor were placed in a housing with a constant temperature of 35°C. Acetylcholine and choline in microdialysis samples were converted into hydrogen peroxide which was detected by amperometric oxidation in a ESA model 5041 analytical cell containing a glassy carbon target electrode and a palladium reference electrode. The oxidation potential was 250 mV and the signal was detected by a ESA model 5200 A Coulochem detector. The retention times for choline and acetylcholine under these conditions were 4 and 6 min, respectively. The limit of detection for acetylcholine was less than 100 fmol on column.
On the day of the experiment, 10-12 fractions were collected to establish the baseline acetylcholine release. Following the establishment of baseline, rats were injected with the test compound and samples were collected until the levels of acetylcholine in the dialysate samples returned to baseline levels (3-5 hr). Compounds were typically dissolved in saline and the pH of the solution was adjusted by the addition of NaOH.

[5] = 60 pM 3H-QNB, rat cerebral membranes, no atropine
[6] = compound tested at 300 µM, relative to nicotine 10µM
[7] = hippocampal acetylcholine, rat microdialysis, nicotine 0.4 mg/kg, lobeline 5.0 mg/kg, first Formula Z compound 40 mg/kg, other doses not given

CN1CCC[C@H]1COC(=O)CCc1ccc(O)cc1 [1-Methvl-2-pyrrolidinemethyl 3-(4-hydroxyphenyl)propionate]
IC50 [1, 5]: > 10000 nM

CN1CCC[C@H]1COC(=O)CCc1ccccc1 [1-Methyl-2-pyrrolidinemethyl 3-phenylpropionate]
IC50 [1, 5]: 1120 nM

CN1CCCC1CCSc1ccc(O)cc1Cl (stereo not drawn) [2-[2-(2-Chloro-4-hydroxyphenyl)thioethyl]-1-methylpyrrolidine]
IC50 [1, 5]: 3300 nM
Emax at 300 µM [2, 6]: 800%

COc1ccc(SCCC2CCCN2C)cc1F (stereo not drawn) [2-[2-(3-Fluoro-4-methoxyphenyl)thioethyl]-1-methylpyrrolidine]
IC50 [1, 5]: 2900 nM
Emax at 300 µM [2, 6]: 21%

CN1CCCC1CCSc1ccc(O)cc1 (stereo not drawn) [2-[2-(4-Hydroxyphenyl)thioethyl]-1-methylpyrrolidine]
IC50 [1]: 1850 nM
Emax at 300 µM [2]: 453%
Emax at 300 µM [3]: 32%
Duration of Increase Above Baseline [4, 7]: 200 min
Peak Increase, % of Baseline [4, 7]: 2,000 % of Baseline

CN1[C@@H](CC(=O)c2ccccc2)CCC[C@H]1C[C@H](O)c1ccccc1 [Lobeline]
Duration of Increase Above Baseline [4, 7]: 200 min
Peak Increase, % of Baseline [4, 7]: 400 % of Baseline

CN1CCCC1c1cccnc1 (stereo not drawn) [Nicotine, reference compound]
Emax at 10 µM [2]: 100%
Emax at 300 µM [3]: 100%
Duration of Increase Above Baseline ([4]; rat, in vivo): 200 min
Peak Increase, % of Baseline ([4]; rat, in vivo): 220 % of Baseline

CNC1(C)C2CCC(C2)C1(C)C (stereo not drawn) [mecamylamine]
attenuation of acetylcholine release induced by compound of Formula Z (A = 4-hydroxyphenyl, B = not present, D = -S-, E = -CH2CH2-, G = 1-methylpyrrolidino) ([4]; rat hippocampus microdialysis, Figure 5): attenuation of acetylcholine release
